Assay results taken from ChEMBL document CHEMBL3507680, “University of Dundee, Gates Library screen for HepG2 cell viability”.

Test: Human HepG2 cell viability assay in 384 well format
Assay type: toxicity, cell-based
Design: dose 125 nL, time 70.5 hour; concentration not given beside the values
Details: HepG2 cells, read-out: Inhibition

Structure (SMILES): COc1ccc(CC(C)(O)CNC(=O)Cc2cccs2)cc1 (centres undefined)
- cytotoxicity at 70.5 h: 11.8%

Structure (SMILES): O=S(=O)(NCC1(O)CCCC1)c1ccccc1Br
- cytotoxicity at 70.5 h: -0.293%

Structure (SMILES): CCCc1nnsc1C(=O)NCC(O)c1cccs1 (centres undefined)
- cytotoxicity at 70.5 h: -6.4%

Structure (SMILES): Cc1ccccc1NC(=O)NCC(C)(O)c1cccs1 (centres undefined)
- cytotoxicity at 70.5 h: 4.31%

Structure (SMILES): CCS(=O)(=O)N1CCN(CC(F)(F)F)CC1
- cytotoxicity at 70.5 h: -5.53%

Structure (SMILES): O=C(Cn1cnc(-c2cccs2)cc1=O)Nc1cccnc1
- cytotoxicity at 70.5 h: -4.25%

Structure (SMILES): CC(=O)Nc1ccc(C(=O)NCCCn2cccc2)cc1
- cytotoxicity at 70.5 h: -14.1%

Structure (SMILES): O=C(NCC1(CO)CC1)c1ccccc1Br
- cytotoxicity at 70.5 h: -8.75%

Structure (SMILES): COCC(C)(O)CNC(=O)Nc1cccc(OC)c1OC (centres undefined)
- cytotoxicity at 70.5 h: -11%

Structure (SMILES): COC1COC2(CCN(C(=O)c3cocn3)CC2)C1 (centres undefined)
- cytotoxicity at 70.5 h: -8.06%

Structure (SMILES): O=C(C1CC1)N1CC[C@H]2C(=O)N(c3ccsc3)CCO[C@H]2C1
- cytotoxicity at 70.5 h: -11.7%

Structure (SMILES): O=C(Nc1ccccc1)C1=NOC2(CCCNC2)C1 (centres undefined)
- cytotoxicity at 70.5 h: 18.4%

Structure (SMILES): CC(=O)N1CC2(CCN(C(=O)N(C)C)CC2)c2cc(C)ccc21
- cytotoxicity at 70.5 h: 5.58%

Structure (SMILES): CN(Cc1cccnc1)C1CC2(CCN(C(=O)c3cscn3)CC2)C1
- cytotoxicity at 70.5 h: 8.2%

Structure (SMILES): Cc1ccc(N2CCC3(CCN(Cc4csc(C)n4)CC3)CC2)nn1
- cytotoxicity at 70.5 h: -6.42%

Structure (SMILES): Cn1cccc1C(=O)N1CCCC2(CCCN2S(C)(=O)=O)C1 (centres undefined)
- cytotoxicity at 70.5 h: -8.52%

Structure (SMILES): CC(=O)N1CC2(CCN(C(=O)CO)CC2)c2cc(C)ccc21
- cytotoxicity at 70.5 h: -4.93%

Structure (SMILES): CS(=O)(=O)N1C[C@@H]2CCN(C(=O)c3ccco3)[C@@H]2C1
- cytotoxicity at 70.5 h: -2.6%

Structure (SMILES): CS(=O)(=O)N1C[C@@H]2COC[C@@H](CC(=O)N3CCCCO3)[C@@H]2C1
- cytotoxicity at 70.5 h: 5.89%

Structure (SMILES): Cc1ccnc(OC[C@@]23CCO[C@@H]2CCN(S(C)(=O)=O)C3)n1
- cytotoxicity at 70.5 h: -7.11%

Structure (SMILES): CCOCC1CN(CCc2ccccc2)Cc2c1cnn2C (centres undefined)
- cytotoxicity at 70.5 h: 10.7%

Structure (SMILES): O=C(Cc1ccccn1)N1CCC2(CCCN(CC3CCOCC3)C2)C1 (centres undefined)
- cytotoxicity at 70.5 h: -0.432%

Structure (SMILES): Cc1ccc2c(c1)C1(CCN(S(C)(=O)=O)CC1)CN2C(=O)N(C)C
- cytotoxicity at 70.5 h: 4.29%

Structure (SMILES): Cc1nc([C@@H]2C[C@H]3CN(Cc4scnc4C)C[C@H]3O2)no1
- cytotoxicity at 70.5 h: 5.82%

Structure (SMILES): Cc1nc(N2CCOCC2)nc2c1COCC21CCN(CC(C)C)C1 (centres undefined)
- cytotoxicity at 70.5 h: -5.39%

Structure (SMILES): CCCS(=O)(=O)N1Cc2nccn2CC(Cn2cccn2)C1 (centres undefined)
- cytotoxicity at 70.5 h: -2.32%

Structure (SMILES): CCOCC1CN(CCOCc2ccccc2)Cc2c1cnn2C (centres undefined)
- cytotoxicity at 70.5 h: -3.18%

Structure (SMILES): O=C(C1CCOC1)N1C[C@H]2CN(c3ccccc3)C(=O)[C@H]2C1 (some centres undefined)
- cytotoxicity at 70.5 h: -4.87%

Structure (SMILES): COc1nn(C)c2c1CCCN(S(=O)(=O)c1cccc(F)c1)C2
- cytotoxicity at 70.5 h: -4.75%

Structure (SMILES): c1ccc(NC[C@@H]2CCC[C@@H]3CN(Cc4csnn4)C[C@@H]32)nc1
- cytotoxicity at 70.5 h: -5.27%

Structure (SMILES): Cn1cnc(S(=O)(=O)N2CCO[C@H]3[C@@H](OCC4CC4)CC[C@@H]32)c1
- cytotoxicity at 70.5 h: 11.1%

Structure (SMILES): O=C(NC[C@H]1OC[C@@H]2CCN(c3ccccn3)C[C@@H]21)c1ccco1
- cytotoxicity at 70.5 h: -1.04%

Structure (SMILES): CCO[C@@H]1CC[C@H]2[C@H]1OCCN2S(=O)(=O)c1cn(C)cn1
- cytotoxicity at 70.5 h: -1.5%

Structure (SMILES): O=C1Nc2ccccc2CC12CCN(CCO)C2 (centres undefined)
- cytotoxicity at 70.5 h: -6.04%

Structure (SMILES): O=C(c1c2c(N3CCCC3)ncnc2n2ccccc12)N1CCOCC1
- cytotoxicity at 70.5 h: -5.97%

Structure (SMILES): CS(=O)(=O)N1CCOCC12CCN(c1nncs1)CC2
- cytotoxicity at 70.5 h: 5.03%

Structure (SMILES): O=C(c1cscn1)N1CC[C@@H]2[C@@H]1CCN2c1ccccn1
- cytotoxicity at 70.5 h: -2.32%

Structure (SMILES): O=C(Cn1nc(N2CCOCC2)ccc1=O)Nc1nccs1
- cytotoxicity at 70.5 h: 15%

Structure (SMILES): CCOC(=O)N1CCN(C(=O)c2snnc2-c2ccc(OC)cc2)CC1
- cytotoxicity at 70.5 h: -11.6%

Structure (SMILES): CCN1CCc2c(sc3c2C(=O)NC(/C=C/c2ccco2)N3)C1 (centres undefined)
- cytotoxicity at 70.5 h: 43.7%

Structure (SMILES): O=C(c1cn(-c2ccccc2Cl)nn1)N1CCSCC1
- cytotoxicity at 70.5 h: 15.4%

Structure (SMILES): COc1cccc(CNC(=O)c2cccnc2N)c1
- cytotoxicity at 70.5 h: 6.88%

Structure (SMILES): Nc1ncccc1C(=O)NCc1ccc(Br)cc1
- cytotoxicity at 70.5 h: -2.61%

Structure (SMILES): Nc1ncccc1C(=O)NCc1cccc(Cl)c1
- cytotoxicity at 70.5 h: -8.22%

Structure (SMILES): O=c1[nH]nc2c(N3CCCCCC3)nccn12
- cytotoxicity at 70.5 h: -8.09%

Structure (SMILES): O=c1[nH]nc2c(N3CCOCC3)nccn12
- cytotoxicity at 70.5 h: -11.6%

Structure (SMILES): COc1ccccc1-c1ccnc2nc(N3CCCCC3)[nH]c(=O)c12
- cytotoxicity at 70.5 h: -15.7%

Structure (SMILES): COCCN1CCn2c(nc3cc(C(=O)NC(C)C)ccc32)C1
- cytotoxicity at 70.5 h: -6.96%

Structure (SMILES): O=C(O)CNC(=O)Cc1csc(-c2cccc(Cl)c2)n1
- cytotoxicity at 70.5 h: 21.1%

Structure (SMILES): CC(C)OCCCNC(=O)CN(c1ccc(F)c(F)c1)S(C)(=O)=O
- cytotoxicity at 70.5 h: -6.87%

Structure (SMILES): CC(C)C[C@H](NC(=O)Cc1csc(-c2cccc(Cl)c2)n1)C(=O)O
- cytotoxicity at 70.5 h: 19.2%

Structure (SMILES): C[C@H](NC(=O)Cc1csc(-c2cccc(Cl)c2)n1)C(=O)O
- cytotoxicity at 70.5 h: 19.3%

Structure (SMILES): O=C(CC1Cn2ncnc2NC1=O)Nc1ccc(F)c(F)c1 (centres undefined)
- cytotoxicity at 70.5 h: -7.69%

Structure (SMILES): CC(C)n1[nH]c(=O)c2c1NC(=O)CSC2c1cccc(OCC(N)=O)c1 (centres undefined)
- cytotoxicity at 70.5 h: -11.3%
